The source of these data is ChEMBL document CHEMBL3244320, “2-Acetylpyridine thiosemicarbazones. 1. A new class of potential antimalarial agents” (J Med Chem, 1979).

SMILES strings stand for the structures.

Common to all, as to type: functional
Details in all cases: route subcutaneous

For test [1], the system named is Plasmodium berghei. Put plainly: Antimalarial activity against Plasmodium berghei KBG 173 infected in ICR/HA Swiss mouse assessed as increase in mean survival time at 40 mg/kg, sc administered 72 hrs post infection.
In test [2] the test system is Plasmodium berghei. Put plainly: Antimalarial activity against Plasmodium berghei KBG 173 infected in ICR/HA Swiss mouse assessed as increase in mean survival time at 160 mg/kg, sc administered 72 hrs post infection.
For test [3], the system named is Plasmodium berghei. As to the kind of experiment: Antimalarial activity against Plasmodium berghei KBG 173 infected in ICR/HA Swiss mouse assessed as increase in mean survival time at 640 mg/kg, sc administered 72 hrs post infection.
For test [4], the system named is Plasmodium berghei. Put plainly: Antimalarial activity against Plasmodium berghei KBG 173 infected in ICR/HA Swiss mouse assessed as increase in mean survival time at 320 mg/kg, sc administered 72 hrs post infection.
The test system of test [5] is Plasmodium berghei. Put plainly: Antimalarial activity against Plasmodium berghei KBG 173 infected in ICR/HA Swiss mouse assessed as increase in mean survival time at 80 mg/kg, sc administered 72 hrs post infection.

For `C/C(=N\NC(=S)NC(c1ccccc1)(c1ccccc1)c1ccccc1)c1ccccn1`, the MST in the test with Plasmodium berghei [1], in the test on Plasmodium berghei [2] and in the test with Plasmodium berghei [3] was 0.1 days throughout.

As to `C/C(=N\NC(=S)Nc1c(Cl)cccc1Cl)c1ccccn1`, the MST was 0.1 days in the test on Plasmodium berghei [1], 0.9 days with Plasmodium berghei [2] and 0.1 days with Plasmodium berghei [3].

`C/C(=N\NC(=S)Nc1cccc([N+](=O)[O-])c1)c1ccccn1`: the figures for the MST in the test with Plasmodium berghei [1], in the test with Plasmodium berghei [2] and with Plasmodium berghei [3] were 0.1 days, -0.3 days and -0.1 days, respectively.

As to `C/C(=N\NC(=S)Nc1ccc(Cl)c(Cl)c1)c1ccccn1`, the MST with Plasmodium berghei [1], with Plasmodium berghei [2] and with Plasmodium berghei [3] was 0.5 days each time.

On to `C/C(=N\NC(=S)NCc1ccncc1)c1ccccn1`, for which the MST came out at 0.3 days in the test with Plasmodium berghei [1], 0.4 days with Plasmodium berghei [2] and 0 days with Plasmodium berghei [3].

In the case of `CC/C(=N\NC(=S)Nc1ccc(Cl)cc1)c1ccccn1`, the MST stood at 0.3 days in the test on Plasmodium berghei [1], 0.7 days in the test with Plasmodium berghei [2] and 1.1 days in the test with Plasmodium berghei [3].

On to `COc1ccc(NC(=S)N/N=C(\C)c2ccccn2)nn1`, for which the MST in the test with Plasmodium berghei [1] worked out at 0.1 days; with Plasmodium berghei [2] it was 0.1 days; in the test with Plasmodium berghei [3], 0.2 days.

For the compound `C/C(=N\NC(=S)Nc1cc(Cl)cc(Cl)c1)c1ccccn1`, the MST with Plasmodium berghei [1] was -0.2 days; in the test on Plasmodium berghei [2], -0.2 days; in the test with Plasmodium berghei [3], 0 days.

As for `C/C(=N\NC(=S)Nc1ccncc1)c1ccccn1`, the MST with Plasmodium berghei [1] was found to be 0.1 days; with Plasmodium berghei [2], 0.3 days; in the test with Plasmodium berghei [3], 0.9 days.

For the compound `CCOC(=O)c1ccc(NC(=S)N/N=C(\C)c2ccccn2)cc1`, the MST is 0.3 days with Plasmodium berghei [1], 0.3 days in the test on Plasmodium berghei [2] and 0.6 days with Plasmodium berghei [3].

As for `C/C(=N\NC(=S)Nc1cccc(Cl)c1Cl)c1ccccn1`, the MST is -0.2 days in the test on Plasmodium berghei [1], 0.2 days with Plasmodium berghei [2] and 0.6 days with Plasmodium berghei [3].

With `C/C(=N\NC(=S)Nc1ccc(Br)cc1)c1ccccn1`, the MST in the test on Plasmodium berghei [1] is 0.3 days; in the test on Plasmodium berghei [2] it was 0.3 days; in the test with Plasmodium berghei [3], 0.5 days.

With `C/C(=N\NC(=S)Nc1ccc([N+](=O)[O-])cc1)c1ccccn1`, the values for the MST in the test with Plasmodium berghei [1], with Plasmodium berghei [2] and in the test on Plasmodium berghei [3] were 0.1 days, 0.1 days and 0.5 days, respectively.

With `C/C(=N\NC(=S)Nc1cccc(Br)c1)c1ccccn1`, the MST in the test with Plasmodium berghei [1] was determined as 0.1 days; in the test on Plasmodium berghei [2] it was 0.3 days; in the test on Plasmodium berghei [3] it was 0.9 days.

As to `CCCCc1ccc(NC(=S)N/N=C(\C)c2ccccn2)cc1`, the values for the MST in the test on Plasmodium berghei [1], in the test on Plasmodium berghei [2] and with Plasmodium berghei [3] were 0.3 days, 3.9 days and 9.9 days, respectively.

As to `C/C(=N\NC(=S)NC(C)c1ccc(F)cc1)c1ccccn1` (stereo not given), the MST in the test on Plasmodium berghei [1] was determined as 1.1 days; in the test with Plasmodium berghei [4] it was 5.2 days; in the test on Plasmodium berghei [5], 5.5 days; in the test with Plasmodium berghei [2] it was 8.5 days.

Regarding `COc1ccc(NC(=S)N/N=C(\C)c2ccccn2)cc1`, the figures for the MST in the test with Plasmodium berghei [1], in the test with Plasmodium berghei [2] and in the test with Plasmodium berghei [3] were 2.1 days, 9.7 days and 1.7 days, respectively.

As to `CC/C(=N\NC(=S)Nc1ccccc1)c1ccccn1`, the MST came out at 0 days with Plasmodium berghei [1], 1.2 days with Plasmodium berghei [5] and 2.6 days in the test with Plasmodium berghei [2].

Take `C/C(=N\NC(=S)Nc1ccc(O)cc1)c1ccccn1`: the MST came out at 0.1 days in the test on Plasmodium berghei [1], 0.3 days with Plasmodium berghei [2] and 0.6 days in the test on Plasmodium berghei [3].

In the case of `C/C(=N\NC(=S)Nc1cc(Cl)ccc1Cl)c1ccccn1`, the MST was -0.1 days in the test on Plasmodium berghei [1], 0.1 days in the test with Plasmodium berghei [2] and 0.1 days in the test with Plasmodium berghei [3].

`CC/C(=N\NC(=S)NC12CC3CC(CC(C3)C1)C2)c1ccccn1`: the MST in the test on Plasmodium berghei [4] stood at 6.3 days; with Plasmodium berghei [5] it was 0.3 days; with Plasmodium berghei [2], 3.7 days; in the test on Plasmodium berghei [3], 9.1 days.

As to `C/C(=N\NC(=S)NCc1cccnc1)c1ccccn1`, the MST came to 0.1 days in the test with Plasmodium berghei [1], 0.3 days in the test on Plasmodium berghei [2] and 0.6 days with Plasmodium berghei [3].

On to `C/C(=N\NC(=S)NCc1cccc(C)c1)c1ccccn1`, for which the results for the MST in the test on Plasmodium berghei [1], with Plasmodium berghei [2] and with Plasmodium berghei [3] were 0.3 days, 0.7 days and 6.5 days, respectively.

With `C/C(=N\N=C(/S)NCc1ccccc1)c1ccccn1`, the MST stood at 0.5 days in the test with Plasmodium berghei [1], 3.7 days in the test with Plasmodium berghei [2] and 10.6 days with Plasmodium berghei [3].

On to `C/C(=N\NC(=S)Nc1ccccc1)c1ccccn1`, for which the figures for the MST in the test with Plasmodium berghei [1], with Plasmodium berghei [5] and in the test on Plasmodium berghei [2] were 3.1 days, 4.7 days and 11.1 days, respectively.

Regarding `C/C(=N\NC(=S)Nc1ccc(Cl)c(Cl)c1Cl)c1ccccn1`, the MST in the test on Plasmodium berghei [1] was 0.1 days; with Plasmodium berghei [2], 0.1 days; with Plasmodium berghei [3] it was -0.3 days.

Regarding `C/C(=N\NC(=S)NCc1ccccc1Cl)c1ccccn1`, the MST stood at 0.3 days in the test on Plasmodium berghei [1], 0.3 days in the test on Plasmodium berghei [2] and 1.9 days in the test on Plasmodium berghei [3].

For the compound `C/C(=N\NC(=S)NCc1ccc(C)c(C)c1)c1ccccn1`, the MST with Plasmodium berghei [1] was found to be 0.3 days; with Plasmodium berghei [2] it was 0.1 days; in the test on Plasmodium berghei [3] it was 2.1 days.

Turning to `CC/C(=N\NC(=S)Nc1cccc(Cl)c1)c1ccccn1`, the MST amounted to 0.3 days in the test on Plasmodium berghei [1], 0.3 days with Plasmodium berghei [2] and 0.5 days in the test with Plasmodium berghei [3].

Take `C/C(=N\NC(=S)NCc1ccc(Cl)c(Cl)c1)c1ccccn1`: the values for the MST in the test with Plasmodium berghei [1], in the test with Plasmodium berghei [2] and in the test with Plasmodium berghei [3] were 0.1 days, 0.5 days and 0.1 days, respectively.

In the case of `CC/C(=N\NC(=S)Nc1ccc(Br)cc1)c1ccccn1`, the MST in the test with Plasmodium berghei [1] was determined as 0.3 days; with Plasmodium berghei [2], 0.3 days; with Plasmodium berghei [3] it was 0.7 days.

`C/C(=N\NC(=S)Nc1ccccc1Br)c1ccccn1`: the results for the MST with Plasmodium berghei [1], with Plasmodium berghei [2] and in the test on Plasmodium berghei [3] were 0.1 days, 0.5 days and 0.9 days, respectively.

`C/C(=N\NC(=S)Nc1c2ccccc2nc2ccccc12)c1ccccn1`: the results for the MST in the test with Plasmodium berghei [1], in the test on Plasmodium berghei [2] and in the test with Plasmodium berghei [3] were 0.3 days, 0.3 days and 0.5 days, respectively.

As to `CC/C(=N\NC(=S)NC(c1ccccc1)(c1ccccc1)c1ccccc1)c1ccccn1`, the MST in the test with Plasmodium berghei [1] is 0.1 days; with Plasmodium berghei [2] it was 0.1 days; in the test on Plasmodium berghei [3], 0.3 days.

With `C/C(=N\NC(=S)Nc1cc(Cl)c(Cl)cc1Cl)c1ccccn1`, the MST in the test with Plasmodium berghei [1] was -0.3 days; in the test on Plasmodium berghei [2] it was 0.1 days; with Plasmodium berghei [3] it was -0.1 days.

Turning to `C/C(=N\NC(=S)NCc1cccc(Cl)c1)c1ccccn1`, the MST was 0 days in the test with Plasmodium berghei [4], 0 days in the test with Plasmodium berghei [5], 1.6 days in the test with Plasmodium berghei [2] and -0.4 days in the test on Plasmodium berghei [3].

Turning to `CCOC(=O)CNC(=S)N/N=C(\CC)c1ccccn1`, the MST in the test on Plasmodium berghei [1] was 0.3 days; in the test with Plasmodium berghei [2], 0.3 days; with Plasmodium berghei [3], 0.5 days.

Take `C/C(=N\NC(=S)NCc1ccc(C)cc1)c1ccccn1`: the MST stood at 0.1 days in the test on Plasmodium berghei [1], 5.7 days with Plasmodium berghei [4], 1.7 days in the test with Plasmodium berghei [5] and 4.3 days with Plasmodium berghei [2].

Turning to `C/C(=N\NC(=S)NCc1ccc(Cl)cc1Cl)c1ccccn1`, the results for the MST in the test with Plasmodium berghei [1], with Plasmodium berghei [2] and with Plasmodium berghei [3] were 0.4 days, 1 days and 2 days, respectively.

Take `CCOC(=O)CNC(=S)N/N=C(\C)c1ccccn1`: the figures for the MST in the test on Plasmodium berghei [1], in the test on Plasmodium berghei [2] and in the test on Plasmodium berghei [3] were 0.1 days, 0.1 days and 0.3 days, respectively.

`C/C(=N\NC(=S)Nc1ccc(S(=O)(=O)c2ccc(NC(=S)N/N=C(\C)c3ccccn3)cc2)cc1)c1ccccn1`: the MST turned out to be 0.1 days in the test with Plasmodium berghei [1], 0.1 days in the test with Plasmodium berghei [2] and 0.3 days in the test with Plasmodium berghei [3].

Regarding `COc1cc(NC(=S)N/N=C(\C)c2ccccn2)c2nccc(C)c2c1`, the figures for the MST in the test with Plasmodium berghei [1], in the test with Plasmodium berghei [2] and in the test with Plasmodium berghei [3] were 0.1 days, 0.1 days and 0.3 days, respectively.

On to `CC/C(=N\NC(=S)Nc1ccccc1Cl)c1ccccn1`, for which the MST with Plasmodium berghei [1] was found to be 0.1 days; in the test on Plasmodium berghei [2] it was 0.1 days; with Plasmodium berghei [3], 0.3 days.

In the case of `CCOC(=O)c1ccc(NC(=S)N/N=C(\CC)c2ccccn2)cc1`, the figures for the MST in the test on Plasmodium berghei [1], in the test on Plasmodium berghei [2] and with Plasmodium berghei [3] were 0.3 days, 0.5 days and 0.5 days, respectively.

For the compound `C/C(=N\NC(=S)N1CC1)c1ccccn1`, the MST in the test on Plasmodium berghei [1], in the test with Plasmodium berghei [2] and in the test with Plasmodium berghei [3] was 0.1 days each time.

On to `C/C(=N\NC(=S)NCc1ccccn1)c1ccccn1`, for which the MST in the test on Plasmodium berghei [1] is 0.1 days; in the test on Plasmodium berghei [2], 0.3 days; in the test on Plasmodium berghei [3], 0.9 days.

For the compound `CC/C(=N\NC(=S)Nc1ccc([N+](=O)[O-])cc1)c1ccccn1`, the MST worked out at 0.1 days with Plasmodium berghei [1], 0.1 days in the test with Plasmodium berghei [2] and 0.3 days with Plasmodium berghei [3].

As to `C/C(=N\NC(=S)Nc1ccc(F)cc1)c1ccccn1`, the MST in the test on Plasmodium berghei [1] turned out to be 1.3 days; in the test with Plasmodium berghei [4], 7.7 days; in the test on Plasmodium berghei [5], 3.7 days; in the test on Plasmodium berghei [2] it was 3.9 days.

For `C/C(=N\NC(=S)Nc1cccnc1)c1ccccn1`, the MST in the test with Plasmodium berghei [1] came to 0.3 days; in the test with Plasmodium berghei [2] it was 0.5 days; with Plasmodium berghei [3] it was 1.3 days.

Regarding `C/C(=N\NC(=S)Nc1ccc(Cl)cc1Cl)c1ccccn1`, the MST with Plasmodium berghei [1] is -0.1 days; in the test on Plasmodium berghei [2] it was 0.3 days; in the test on Plasmodium berghei [3], 0.7 days.
